# US6372297B1, “Wood preservative oxathiazines” (Uniroyal Chemical Company, Inc., priority 1993, dated 2002)
# Where two headings read alike, the source gives them in different places.
# Tests used:
# Assay type in all cases: cell-based
# Pseudomonas aeruginosa = assay: Wood preservative efficacy against bacteria and yeasts, tryptose agar plates; parameters: key: 0 = growth equal to control, 1 = growth inhibited, 2 = no growth; details: 100 ppm in tryptose agar
# Protocol: Compositions were prepared by dissolving the compounds shown in Table 1 in 50% ethanol and further diluting with sterile distilled water. […] After cooling, the medium was inoculated with the bacteria listed below. After sufficient growth of the untreated cultures, the compounds were evaluated using the following rating system: 0=growth equal to control 1=inhibition of growth by the compound 2=no growth under the influence of the compound. In this Table, the higher numbers are the most preferred species. Pseudomonas aeruginosa (gram neg)
# Streptomyces albus = assay: as above; parameters: key: 0 = growth equal to control, 1 = inhibition, 2 = no growth
# Protocol: Compositions were prepared by dissolving the compounds shown in Table 1 in 50% ethanol and further diluting with sterile distilled water. […] After cooling, the medium was inoculated with the bacteria listed below. After sufficient growth of the untreated cultures, the compounds were evaluated using the following rating system: 0=growth equal to control 1=inhibition of growth by the compound 2=no growth under the influence of the compound. In this Table, the higher numbers are the most preferred species. Streptomyces albus (gram pos)
# Coriolus versicolor = assay: Wood preservative efficacy against fungi, agar plate colony diameter; details: for Score of fungicidal activity, C. VERSICLOR: Test dosage 10 ppm, Table 6A; for Score of fungicidal activity, G. VERSICLOR: Table 6B
# Protocol: (§1) Each plate was inoculated with a spore suspension or with a small piece of agar (1 mm) from the margin of an actively growing colony of the test fungus. The fungi employed are listed below. After incubation at 22° C. and 70% relative humidity during a period long enough to allow significant growth of untreated controls, the diameters of the fungus colonies were measured and scored using the following rating system: 0=free of fungal growth 1=25% of fungal growth compared to untreated 2=50% of fungal growth compared to untreated 3=75% of fungal growth compared to untreated 4=Growth equal to that of untreated The scores measured for wood preservation efficacy of the compounds of this invention are listed in Tables 6a and 6b. In these Tables, the lower numbers are the most preferred species. Coriolus versicolor
# Bacillus cereus mycoides = system: Bacillus cereus mycoides; parameters: scale not given here
# Aspergillus flavus = assay: Wood preservative efficacy against fungi, agar plate colony diameter
# Protocol: as §1, with “Aspergillus flavus” for “Coriolus versicolor”
# Coniophora puteana = assay: as above; parameters: key: 0 = no fungal growth, 1-3 = 25/50/75% of untreated, 4 = equal
# Protocol: as §1, with “Coniophora puteana (syn. C. cerebella)” for “Coriolus versicolor”
# Pseudomonas alcaligenes = assay: Wood preservative efficacy against bacteria and yeasts, tryptose agar plates; parameters: key: 0 = growth equal to control, 1 = inhibition, 2 = no growth; details: 100 ppm in tryptose agar
# Protocol: Compositions were prepared by dissolving the compounds shown in Table 1 in 50% ethanol and further diluting with sterile distilled water. […] After cooling, the medium was inoculated with the bacteria listed below. After sufficient growth of the untreated cultures, the compounds were evaluated using the following rating system: 0=growth equal to control 1=inhibition of growth by the compound 2=no growth under the influence of the compound. In this Table, the higher numbers are the most preferred species. Pseudomonas alcaligenes (gram neg)
# Penicillium islandicum = assay: Wood preservative efficacy against fungi, agar plate colony diameter; parameters: key: 1 = 25%, 2 = 50%, 3 = 75%, 4 = 100% of untreated fungal growth
# Protocol: The compounds shown in Table 1 were dissolved in 50% ethanol and then diluted with sterile water to give the required concentrations of 1 and 10 ppm in the test agar plates. Malt extract sugar (3%) was added aseptically and uniform distribution was obtained by shaking. Each plate was inoculated with a spore suspension or with a small piece of agar (1 mm) from the margin of an actively growing colony of the test fungus. The fungi employed are listed below. After incubation at 22° C. and 70% relative humidity during a period long enough to allow significant growth of untreated controls, the diameters of the fungus colonies were measured and scored using the following rating system:
# 1=25% of fungal growth compared to untreated
# 2=50% of fungal growth compared to untreated
# 3=75% of fungal growth compared to untreated
# 4=Growth equal to that of untreated
# In these Tables, the lower numbers are the most preferred species.
# Escherichia coli = assay: Wood preservative efficacy against bacteria and yeasts, tryptose agar plates; parameters: key: 0 = growth equal to control, 1 = growth inhibited, 2 = no growth
# Protocol: Compositions were prepared by dissolving the compounds shown in Table 1 in 50% ethanol and further diluting with sterile distilled water. […] After cooling, the medium was inoculated with the bacteria listed below. After sufficient growth of the untreated cultures, the compounds were evaluated using the following rating system: 0=growth equal to control 1=inhibition of growth by the compound 2=no growth under the influence of the compound. In this Table, the higher numbers are the most preferred species. Escherichia coli ([…])
# Mucor sp. = assay: Wood preservative efficacy against fungi, agar plate colony diameter
# Protocol: as §1, with “Mucor sp.” for “Coriolus versicolor”
smiles,measurement,setting,value
C[S+]1CCON=C1c1ccc(Cl)cc1 (stereo not shown) [Compound 1],"Score of bactericidal activity, P. aeruginosa",Pseudomonas aeruginosa,0
same,"Score of bactericidal activity, S. albus",Streptomyces albus; 100 ppm in tryptose agar,2
same,"Score of fungicidal activity, C. VERSICLOR",Coriolus versicolor,0
same,"Score of bactericidal activity, B. cereus mycoides",Bacillus cereus mycoides; 10 ppm in tryptose agar,2
same,"Score of bactericidal activity, B. cereus mycoides",Bacillus cereus mycoides; 100 ppm in tryptose agar,2
same,"Score of fungicidal activity, A. FLAVUS","Aspergillus flavus; Test dosage 10 ppm, Table 6A",0
same,"Score of fungicidal activity, C. PUTEANA","Coniophora puteana; Test dosage 10 ppm, Table 6A",2 (50% of growth compared to untreated control)
same,"Score of bactericidal activity, P. alcalgenes",Pseudomonas alcaligenes,1
same,"Score of fungicidal activity, P. ISLANDICUM","Penicillium islandicum; Test dosage 10 ppm, Table 6A",0
same,"Score of bactericidal activity, E. Coli",Escherichia coli; 100 ppm in tryptose agar,2
[O-][S+]1CCON=C1c1ccc(Cl)c(Cl)c1 (stereo not shown) [Compound 4],"Score of bactericidal activity, P. aeruginosa",Pseudomonas aeruginosa,0
same,"Score of bactericidal activity, S. albus",Streptomyces albus; 100 ppm in tryptose agar,2
same,"Score of fungicidal activity, C. VERSICLOR",Coriolus versicolor,0
same,"Score of bactericidal activity, B. cereus mycoides",Bacillus cereus mycoides; 10 ppm in tryptose agar,2
same,"Score of bactericidal activity, B. cereus mycoides",Bacillus cereus mycoides; 100 ppm in tryptose agar,2
same,"Score of fungicidal activity, A. FLAVUS","Aspergillus flavus; Test dosage 10 ppm, Table 6A",0
same,"Score of fungicidal activity, C. PUTEANA","Coniophora puteana; Test dosage 10 ppm, Table 6A",0
same,"Score of bactericidal activity, P. alcalgenes",Pseudomonas alcaligenes,1
same,"Score of fungicidal activity, P. ISLANDICUM","Penicillium islandicum; Test dosage 10 ppm, Table 6A",0
same,"Score of bactericidal activity, E. Coli",Escherichia coli; 100 ppm in tryptose agar,2
[O-][S+]1CCON=C1c1cccs1 (stereo not shown) [Compound 8],"Score of bactericidal activity, P. aeruginosa",Pseudomonas aeruginosa,1
same,"Score of bactericidal activity, S. albus",Streptomyces albus; 100 ppm in tryptose agar,2
same,"Score of fungicidal activity, C. VERSICLOR",Coriolus versicolor,0
same,"Score of bactericidal activity, B. cereus mycoides",Bacillus cereus mycoides; 10 ppm in tryptose agar,0
same,"Score of bactericidal activity, B. cereus mycoides",Bacillus cereus mycoides; 100 ppm in tryptose agar,2
same,"Score of fungicidal activity, A. FLAVUS","Aspergillus flavus; Test dosage 10 ppm, Table 6A",1 (25% of growth compared to untreated control)
same,"Score of fungicidal activity, C. PUTEANA","Coniophora puteana; Test dosage 10 ppm, Table 6A",2 (50% of growth compared to untreated control)
same,"Score of bactericidal activity, P. alcalgenes",Pseudomonas alcaligenes,2
same,"Score of fungicidal activity, P. ISLANDICUM","Penicillium islandicum; Test dosage 10 ppm, Table 6A",0
same,"Score of bactericidal activity, E. Coli",Escherichia coli; 100 ppm in tryptose agar,2
CC(=O)c1ccc(C2=NOCC[S+]2[O-])cc1 (stereo not shown) [Compound 14],"Score of bactericidal activity, P. aeruginosa",Pseudomonas aeruginosa,1
same,"Score of bactericidal activity, S. albus",Streptomyces albus; 100 ppm in tryptose agar,2
same,"Score of fungicidal activity, C. VERSICLOR",Coriolus versicolor,2 (50% of growth compared to untreated control)
same,"Score of bactericidal activity, B. cereus mycoides",Bacillus cereus mycoides; 10 ppm in tryptose agar,2
same,"Score of bactericidal activity, B. cereus mycoides",Bacillus cereus mycoides; 100 ppm in tryptose agar,2
same,"Score of fungicidal activity, MUCOR SP","Mucor sp.; Test dosage 10 ppm, Table 6A",1 (25% of growth compared to untreated control)
same,"Score of fungicidal activity, A. FLAVUS","Aspergillus flavus; Test dosage 10 ppm, Table 6A",2 (50% of growth compared to untreated control)
same,"Score of fungicidal activity, C. PUTEANA","Coniophora puteana; Test dosage 10 ppm, Table 6A",3 (75% of growth compared to untreated control)
same,"Score of bactericidal activity, P. alcalgenes",Pseudomonas alcaligenes,1
same,"Score of fungicidal activity, P. ISLANDICUM","Penicillium islandicum; Test dosage 10 ppm, Table 6A",4
same,"Score of bactericidal activity, E. Coli",Escherichia coli; 100 ppm in tryptose agar,2
C[S+]1CCON=C1c1cc(Cl)cc(Cl)c1 (stereo not shown) [Compound 19],"Score of bactericidal activity, P. aeruginosa",Pseudomonas aeruginosa,0
same,"Score of bactericidal activity, S. albus",Streptomyces albus; 10 ppm in tryptose agar,0
same,"Score of bactericidal activity, S. albus",Streptomyces albus; 100 ppm in tryptose agar,2
same,"Score of fungicidal activity, G. VERSICLOR",Coriolus versicolor; 1 ppm,2 (50% of growth compared to untreated control)
same,"Score of fungicidal activity, G. VERSICLOR",Coriolus versicolor; 10 ppm,0
same,"Score of bactericidal activity, B. cereus mycoides",Bacillus cereus mycoides; 10 ppm in tryptose agar,0
same,"Score of bactericidal activity, B. cereus mycoides",Bacillus cereus mycoides; 100 ppm in tryptose agar,2
same,"Score of fungicidal activity, MUCOR SP","Mucor sp.; 100 ppm, Table 6B",2 (50% of growth compared to untreated control)
same,"Score of fungicidal activity, A. FLAVUS","Aspergillus flavus; 10 ppm, Table 6B",0
same,"Score of fungicidal activity, C. PUTEANA","Coniophora puteana; 10 ppm, Table 6B",3 (75% of growth compared to untreated control)
same,"Score of bactericidal activity, P. alcalgenes",Pseudomonas alcaligenes,0
same,"Score of fungicidal activity, P. ISLANDICUM","Penicillium islandicum; 10 ppm, Table 6B",0
same,"Score of bactericidal activity, E. Coli",Escherichia coli; 10 ppm in tryptose agar,0
same,"Score of bactericidal activity, E. Coli",Escherichia coli; 100 ppm in tryptose agar,0
CCOC(=O)c1ccc(C2=NOCC[S+]2[O-])cc1 (stereo not shown) [Compound 22],"Score of bactericidal activity, P. aeruginosa",Pseudomonas aeruginosa,0
same,"Score of bactericidal activity, S. albus",Streptomyces albus; 10 ppm in tryptose agar,1
same,"Score of bactericidal activity, S. albus",Streptomyces albus; 100 ppm in tryptose agar,2
same,"Score of fungicidal activity, G. VERSICLOR",Coriolus versicolor; 10 ppm,2 (50% of growth compared to untreated control)
same,"Score of bactericidal activity, B. cereus mycoides",Bacillus cereus mycoides; 10 ppm in tryptose agar,2
same,"Score of bactericidal activity, B. cereus mycoides",Bacillus cereus mycoides; 100 ppm in tryptose agar,2
same,"Score of fungicidal activity, MUCOR SP","Mucor sp.; 100 ppm, Table 6B",0
same,"Score of fungicidal activity, A. FLAVUS","Aspergillus flavus; 10 ppm, Table 6B",2 (50% of growth compared to untreated control)
same,"Score of fungicidal activity, C. PUTEANA","Coniophora puteana; 1 ppm, Table 6B",3 (75% of growth compared to untreated control)
same,"Score of fungicidal activity, C. PUTEANA","Coniophora puteana; 10 ppm, Table 6B",0
same,"Score of bactericidal activity, P. alcalgenes",Pseudomonas alcaligenes,1
same,"Score of fungicidal activity, P. ISLANDICUM","Penicillium islandicum; 10 ppm, Table 6B",2 (50% of growth compared to untreated control)
same,"Score of bactericidal activity, E. Coli",Escherichia coli; 10 ppm in tryptose agar,0
same,"Score of bactericidal activity, E. Coli",Escherichia coli; 100 ppm in tryptose agar,0
C[S+]1CCON=C1c1ccc(C(F)(F)F)cc1 (stereo not shown) [Compound 25],"Score of bactericidal activity, P. aeruginosa",Pseudomonas aeruginosa,0
same,"Score of bactericidal activity, S. albus",Streptomyces albus; 10 ppm in tryptose agar,2
same,"Score of bactericidal activity, S. albus",Streptomyces albus; 100 ppm in tryptose agar,2
same,"Score of fungicidal activity, G. VERSICLOR",Coriolus versicolor; 1 ppm,3 (75% of growth compared to untreated control)
same,"Score of fungicidal activity, G. VERSICLOR",Coriolus versicolor; 10 ppm,0
same,"Score of bactericidal activity, B. cereus mycoides",Bacillus cereus mycoides; 10 ppm in tryptose agar,2
same,"Score of bactericidal activity, B. cereus mycoides",Bacillus cereus mycoides; 100 ppm in tryptose agar,2
same,"Score of fungicidal activity, MUCOR SP","Mucor sp.; 10 ppm, Table 6B",3 (75% of growth compared to untreated control)
same,"Score of fungicidal activity, MUCOR SP","Mucor sp.; 100 ppm, Table 6B",0
same,"Score of fungicidal activity, A. FLAVUS","Aspergillus flavus; 10 ppm, Table 6B",0
same,"Score of fungicidal activity, C. PUTEANA","Coniophora puteana; 1 ppm, Table 6B",2 (50% of growth compared to untreated control)
same,"Score of fungicidal activity, C. PUTEANA","Coniophora puteana; 10 ppm, Table 6B",0
same,"Score of bactericidal activity, P. alcalgenes",Pseudomonas alcaligenes,1
same,"Score of fungicidal activity, P. ISLANDICUM","Penicillium islandicum; 10 ppm, Table 6B",1 (25% of growth compared to untreated control)
same,"Score of bactericidal activity, E. Coli",Escherichia coli; 10 ppm in tryptose agar,0
same,"Score of bactericidal activity, E. Coli",Escherichia coli; 100 ppm in tryptose agar,0
